Source: PMC6804006, “Synthesis, Biological Activities and Docking Studies of Novel 4-(Arylaminomethyl)benzamide Derivatives as Potential Tyrosine Kinase Inhibitors” (Molecules, 2019)

Tests used:
[1] = tested on: MCF-7 (breast adenocarcinoma); test: MTT anti-proliferative assay, MCF-7; format: cell-based; conditions: Homo sapiens, MCF7, 48 h, 50% growth inhibition
Procedure: (§1) Each in vitro experiment was performed at least in triplicate, and the standard deviation of absorbance was less than 10% of the mean. For the in vitro assays, a stock solution (1% DMSO in the appropriate buffer with the tested compound diluted under sonication) was prepared from which several dilutions were made with the appropriate buffer.
(§2) Human cell lines were obtained from the Institute of Cytology, Russian Academy of Sciences. […] Cellular sensitivities to clofarabine and its lipid derivatives were measured with the MTT assay. Cells were plated in triplicate in 96-well plates (10^5 cells/well for suspended cell cultures and 5 × 10^3 cells/well for monolayer cultures); on the same day (suspended cell cultures) or on the following day (monolayer cultures), compounds were added at the appropriate dilutions. Plates were incubated under standard conditions for 48 h. Thereafter, 10 μL of MTT (Sigma) in phosphate-buffered saline (5 mg/mL) was added. The plates were incubated for an additional 4 h, and 150 μL of dimethyl sulfoxide (DMSO) was added to dissolve the formazan crystals. The optical density was read on a HALO MPR-95 Microplate Reader (Dynamica Scientific Ltd., Australia) at 570 nm. The antiproliferative effects were determined as degrees of inhibition of tumor cells (%).

[2] = tested on: RPMI 1788 (B lymphocyte, human normal cells); test: MTT assay on normal cells RPMI 1788; format: cell-based; conditions: MTT 48 h
Procedure: as §1
Human cell lines were obtained from the Institute of Cytology, Russian Academy of Sciences. The cell lines studied were maintained in RPMI 1640 medium (AppliChem, Darmstadt, Germany) supplemented with 20% (HL-60, RPMI 1788) fetal calf serum (HyClone, Cramlington, UK), in DMEM (A 549) and Eagle’s MEM (AppliChem) (MCF7, HeLa) with 10% fetal calf serum (HyClone). Cells were cultivated at 37 °C in a humidified atmosphere of 5% CO2. Cellular sensitivities to clofarabine and its lipid derivatives were measured with the MTT assay. Cells were plated in triplicate in 96-well plates (10^5 cells/well for suspended cell cultures and 5 × 10^3 cells/well for monolayer cultures); on the same day (suspended cell cultures) or on the following day (monolayer cultures), compounds were added at the appropriate dilutions. Plates were incubated under standard conditions for 48 h. Thereafter, 10 μL of MTT (Sigma) in phosphate-buffered saline (5 mg/mL) was added. The plates were incubated for an additional 4 h, and 150 μL of dimethyl sulfoxide (DMSO) was added to dissolve the formazan crystals. The optical density was read on a HALO MPR-95 Microplate Reader (Dynamica Scientific Ltd., Australia) at 570 nm. The antiproliferative effects were determined as degrees of inhibition of tumor cells (%).

[3] = tested on: A549 (lung carcinoma); test: MTT anti-proliferative assay, A-549; format: cell-based; conditions: Homo sapiens, 48 h, 50% growth inhibition
Procedure: as §1, §2

[4] = tested on: OKP-GS (carcinoma of the kidney); test: MTT anti-proliferative assay, OKP-GS; format: cell-based; conditions: Homo sapiens, 48 h, 50% growth inhibition
Procedure: as §1, §2

[5] = tested on: HeLa (cervix carcinoma); test: MTT anti-proliferative assay, HeLa; format: cell-based; conditions: Homo sapiens, 48 h, 50% growth inhibition
Procedure: as §1, §2

[6] = target: T1, PDGFRa (Homo sapiens, UniProt P16234); test: ADP-Glo kinase inhibitory assay, PDGFRa; format: biochemical; conditions: read-out: % Inhibition at 10 nM, PDGFRa
T1 construct: purchased Promega
T1 sequence (P16234 24-1089): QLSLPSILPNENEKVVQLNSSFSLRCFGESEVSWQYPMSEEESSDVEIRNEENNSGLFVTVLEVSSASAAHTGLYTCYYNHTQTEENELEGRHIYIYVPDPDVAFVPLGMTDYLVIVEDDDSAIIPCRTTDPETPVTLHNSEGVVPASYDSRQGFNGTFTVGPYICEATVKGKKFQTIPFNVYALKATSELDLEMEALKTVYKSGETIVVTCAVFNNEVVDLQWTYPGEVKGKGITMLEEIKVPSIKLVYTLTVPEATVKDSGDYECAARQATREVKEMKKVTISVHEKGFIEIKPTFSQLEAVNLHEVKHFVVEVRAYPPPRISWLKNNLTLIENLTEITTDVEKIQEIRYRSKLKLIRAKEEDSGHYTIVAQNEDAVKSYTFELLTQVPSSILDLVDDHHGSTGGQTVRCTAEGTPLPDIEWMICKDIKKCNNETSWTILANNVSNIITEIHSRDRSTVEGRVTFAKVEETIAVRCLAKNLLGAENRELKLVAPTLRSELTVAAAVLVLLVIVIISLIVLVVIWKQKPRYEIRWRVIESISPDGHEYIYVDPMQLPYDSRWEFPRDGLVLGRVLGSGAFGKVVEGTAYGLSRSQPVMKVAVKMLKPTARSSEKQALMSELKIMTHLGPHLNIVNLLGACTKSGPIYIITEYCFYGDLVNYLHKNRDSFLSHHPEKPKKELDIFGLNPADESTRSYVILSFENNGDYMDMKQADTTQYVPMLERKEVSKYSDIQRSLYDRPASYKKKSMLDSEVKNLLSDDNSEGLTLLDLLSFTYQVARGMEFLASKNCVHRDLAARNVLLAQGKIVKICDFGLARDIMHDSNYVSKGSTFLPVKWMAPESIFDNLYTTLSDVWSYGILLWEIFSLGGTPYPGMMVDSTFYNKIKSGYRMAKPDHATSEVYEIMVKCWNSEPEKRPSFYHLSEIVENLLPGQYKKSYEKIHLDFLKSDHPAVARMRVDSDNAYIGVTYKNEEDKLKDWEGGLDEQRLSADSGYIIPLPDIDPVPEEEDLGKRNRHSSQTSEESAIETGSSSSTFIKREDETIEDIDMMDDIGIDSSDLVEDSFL
Procedure: (§3) We investigated the kinase selectivity of targeted compounds against eight receptor tyrosine kinases including EGFR (epidermal growth factor receptor), HER-2 and HER4 (human epidermal growth factor receptor), IGF1R (insulin like growth factor 1 receptor), InsR (gene insulin receptor), KDR (kinase insert domain receptor), and PDGFRa and PDGFRb (platelet-derived growth factor receptors). The assay was performed using the Kinase-Glo Plus luminescence kinase assay kit (TK-1+ADP-Glo™, Promega, San Diego, CA, USA). It measures kinase activity by quantitating the amount of ATP remaining in solution following a kinase reaction.
(§4) The assay was performed using a Kinase Selectivity Profiling System (TK-1+ADP-Glo™ Assay and TK-2+ADP-Glo™ Assay, Promega), where the kinase activity was measured by quantifying the amount of ADP produced during a kinase reaction. The assay is performed in two steps; firstly, after the kinase reaction, an equal volume of ADP-Glo™ Reagent is added to terminate the kinase reaction and deplete the remaining ATP. Secondly, the Kinase Detection Reagent is added to simultaneously convert ADP to ATP and allow the newly synthesized ATP to be measured using a luciferase/luciferin reaction. The luminescent signal generated is proportional to the ADP concentration produced and is correlated with kinase activity. Our compounds were diluted with kinase buffer (5% DMSO), and 1 μL of the dilution was added to a 5-μL reaction so that the final concentration of DMSO was 1% in all of reactions. All of the enzymatic reactions were conducted at 23 °C for 60 min. The 5-μL reaction mixture contained 1µL of the compound solution, 2µL of the enzyme solution, and 2 µL of kinase substrate. After the enzymatic reaction, 5 µL of ADP-Glo™ Reagent (Promega, USA) was added to each reaction, and the plate was incubated for 40 min at 23 °C. Then, 10 µL of Kinase Detection Reagent (Promega, USA) was added to each reaction, and the plate was incubated for 30 min at 23 °C. Luminescence signal was measured using an Infinite M 200 plate reader (Tecan, Switzerland).
(§5) Kinase activity assays were performed in duplicate at each concentration. The luminescence data were analyzed using the computer software, Magellan™. The difference between luminescence intensities in the absence of Kinase (Lut) and in the presence of Kinase (Luc) was defined as 100% activity (Lut − Luc).

[7] = tested on: K-562 (chronic myelogenous leukemia); test: MTT anti-proliferative assay, K-562; format: cell-based; conditions: Homo sapiens, K562, 48 h, 50% growth inhibition
Procedure: as §1, §2

[8] = target: T2, HER-4 (Homo sapiens, UniProt Q15303); test: ADP-Glo kinase inhibitory assay, HER-4; format: biochemical; conditions: for inhibition at 0.01 µM: read-out: % Inhibition at 10 nM, HER-4; for inhibitory activity in relation to HER-4, in words: 10 nM, compared with imatinib
T2 construct: purchased Promega
Procedure: as §3, §4, §5

[9] = target: T3, EGFR (Homo sapiens, UniProt P00533); test: ADP-Glo kinase inhibitory assay, EGFR; format: biochemical; conditions: read-out: % Inhibition at 10 nM, EGFR
T3 construct: purchased Promega
Procedure: as §3, §4, §5

[10] = target: T4, IGF1R (Homo sapiens, UniProt P08069); test: ADP-Glo kinase inhibitory assay, IGF1R; format: biochemical; conditions: read-out: % Inhibition at 10 nM, IGF1R
T4 construct: purchased Promega
T4 sequence (P08069 31-1367): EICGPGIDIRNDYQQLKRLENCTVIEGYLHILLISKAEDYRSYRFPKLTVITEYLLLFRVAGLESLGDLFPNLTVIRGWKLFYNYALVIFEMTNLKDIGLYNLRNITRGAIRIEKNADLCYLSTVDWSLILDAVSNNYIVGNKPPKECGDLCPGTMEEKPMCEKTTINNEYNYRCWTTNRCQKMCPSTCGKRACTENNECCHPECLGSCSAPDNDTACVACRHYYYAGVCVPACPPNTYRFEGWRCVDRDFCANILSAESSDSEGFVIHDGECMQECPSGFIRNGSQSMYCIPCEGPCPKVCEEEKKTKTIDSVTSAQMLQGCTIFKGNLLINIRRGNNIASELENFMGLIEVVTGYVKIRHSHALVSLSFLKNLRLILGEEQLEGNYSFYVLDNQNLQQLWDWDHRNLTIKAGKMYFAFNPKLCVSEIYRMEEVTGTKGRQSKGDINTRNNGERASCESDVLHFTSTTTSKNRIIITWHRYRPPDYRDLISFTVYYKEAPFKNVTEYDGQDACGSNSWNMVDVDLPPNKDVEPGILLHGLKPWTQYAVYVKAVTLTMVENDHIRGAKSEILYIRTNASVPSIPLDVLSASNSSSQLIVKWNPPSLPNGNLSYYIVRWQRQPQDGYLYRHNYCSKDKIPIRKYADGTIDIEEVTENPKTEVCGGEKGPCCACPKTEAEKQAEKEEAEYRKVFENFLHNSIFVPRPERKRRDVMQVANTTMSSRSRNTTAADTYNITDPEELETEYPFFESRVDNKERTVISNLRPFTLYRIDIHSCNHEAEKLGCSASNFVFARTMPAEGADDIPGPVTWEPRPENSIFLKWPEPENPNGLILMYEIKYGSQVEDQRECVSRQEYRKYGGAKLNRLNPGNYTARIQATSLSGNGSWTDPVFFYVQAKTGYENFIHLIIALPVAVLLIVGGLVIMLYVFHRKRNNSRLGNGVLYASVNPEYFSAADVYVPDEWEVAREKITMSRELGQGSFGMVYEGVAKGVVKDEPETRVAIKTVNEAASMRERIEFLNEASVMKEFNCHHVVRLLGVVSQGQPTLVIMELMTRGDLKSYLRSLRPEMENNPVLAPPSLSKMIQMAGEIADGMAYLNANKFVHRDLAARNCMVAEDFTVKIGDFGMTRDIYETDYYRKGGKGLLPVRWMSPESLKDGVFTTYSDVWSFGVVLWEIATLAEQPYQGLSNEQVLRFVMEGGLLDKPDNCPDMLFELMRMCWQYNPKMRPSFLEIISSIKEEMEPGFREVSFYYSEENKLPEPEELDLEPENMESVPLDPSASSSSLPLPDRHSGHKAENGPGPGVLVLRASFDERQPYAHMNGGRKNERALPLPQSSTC
Procedure: as §3, §4, §5

[11] = target: T5, PDGFRb (Homo sapiens, UniProt P09619); test: ADP-Glo kinase inhibitory assay, PDGFRb; format: biochemical; conditions: read-out: % Inhibition at 10 nM, PDGFRb
T5 construct: purchased Promega
Procedure: as §3, §4, §5

[12] = tested on: HL-60 (promyelocytic leukemia); test: MTT anti-proliferative assay, HL-60; format: cell-based, human; conditions: 50% growth inhibition
Procedure: as §1, §2

[13] = target: T6, InsR (Homo sapiens, UniProt P06213); test: ADP-Glo kinase inhibitory assay, InsR; format: biochemical; conditions: for selectivity for the gene insulin receptor, in words: 10 nM, panel of eight receptor tyrosine kinases; for inhibition at 0.01 µM: read-out: % Inhibition at 10 nM, InsR
T6 construct: purchased Promega
T6 sequence (P06213 28-1382): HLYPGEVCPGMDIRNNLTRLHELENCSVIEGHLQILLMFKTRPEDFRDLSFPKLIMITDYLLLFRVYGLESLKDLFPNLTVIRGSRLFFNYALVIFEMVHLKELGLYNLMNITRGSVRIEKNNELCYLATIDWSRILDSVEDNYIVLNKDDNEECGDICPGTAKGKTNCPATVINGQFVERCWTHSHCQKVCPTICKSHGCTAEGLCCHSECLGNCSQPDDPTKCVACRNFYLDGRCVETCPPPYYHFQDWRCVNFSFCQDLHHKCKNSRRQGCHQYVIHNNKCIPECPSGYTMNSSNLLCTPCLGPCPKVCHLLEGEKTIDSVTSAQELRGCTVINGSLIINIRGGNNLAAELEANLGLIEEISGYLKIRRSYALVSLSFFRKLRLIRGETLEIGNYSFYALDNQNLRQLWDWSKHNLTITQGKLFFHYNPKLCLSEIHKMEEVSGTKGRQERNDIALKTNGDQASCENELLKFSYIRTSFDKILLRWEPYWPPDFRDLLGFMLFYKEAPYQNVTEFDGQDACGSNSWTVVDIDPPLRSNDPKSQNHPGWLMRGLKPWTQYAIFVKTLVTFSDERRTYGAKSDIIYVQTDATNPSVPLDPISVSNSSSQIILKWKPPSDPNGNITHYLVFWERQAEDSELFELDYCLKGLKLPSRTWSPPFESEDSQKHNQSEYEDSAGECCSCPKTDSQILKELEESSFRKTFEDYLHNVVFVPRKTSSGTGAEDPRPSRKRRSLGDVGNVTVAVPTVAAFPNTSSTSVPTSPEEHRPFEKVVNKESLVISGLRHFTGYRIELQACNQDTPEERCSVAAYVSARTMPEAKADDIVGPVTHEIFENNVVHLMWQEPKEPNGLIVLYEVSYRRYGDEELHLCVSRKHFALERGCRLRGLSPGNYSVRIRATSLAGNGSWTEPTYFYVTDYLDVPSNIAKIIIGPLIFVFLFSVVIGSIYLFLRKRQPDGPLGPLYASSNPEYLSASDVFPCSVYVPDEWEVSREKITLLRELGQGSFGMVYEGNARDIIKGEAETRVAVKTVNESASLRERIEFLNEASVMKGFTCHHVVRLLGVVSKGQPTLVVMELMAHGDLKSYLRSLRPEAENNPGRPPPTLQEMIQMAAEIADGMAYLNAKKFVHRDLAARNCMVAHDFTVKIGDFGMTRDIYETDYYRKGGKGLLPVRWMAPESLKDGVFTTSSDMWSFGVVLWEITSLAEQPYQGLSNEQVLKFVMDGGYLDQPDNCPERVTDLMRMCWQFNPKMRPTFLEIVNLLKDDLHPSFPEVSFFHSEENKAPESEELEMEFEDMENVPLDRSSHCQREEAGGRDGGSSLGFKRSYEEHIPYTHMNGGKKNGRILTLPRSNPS
Procedure: as §3, §4, §5

[14] = target: T7, KDR (VEGFR2) (Homo sapiens, UniProt P35968); test: ADP-Glo kinase inhibitory assay, KDR; format: biochemical; conditions: 10 nM
T7 construct: purchased Promega
Procedure: as §3
Vascular endothelial growth factor receptor 2 (VEGFR2), also called kinase insert domain receptor (KDR), is a tyrosine kinase receptor for VEGFs that plays a central role in tumor angiogenesis; therefore, the inhibition of VEGFR2 is a promising therapeutic strategy for inhibiting angiogenesis and tumor growth.
as §4, §5

[15] = target: T8, HER-2 (Homo sapiens, UniProt P04626); test: ADP-Glo kinase inhibitory assay, HER-2; format: biochemical; conditions: read-out: % Inhibition at 10 nM, HER-2
T8 construct: purchased Promega
T8 sequence (P04626 23-1255): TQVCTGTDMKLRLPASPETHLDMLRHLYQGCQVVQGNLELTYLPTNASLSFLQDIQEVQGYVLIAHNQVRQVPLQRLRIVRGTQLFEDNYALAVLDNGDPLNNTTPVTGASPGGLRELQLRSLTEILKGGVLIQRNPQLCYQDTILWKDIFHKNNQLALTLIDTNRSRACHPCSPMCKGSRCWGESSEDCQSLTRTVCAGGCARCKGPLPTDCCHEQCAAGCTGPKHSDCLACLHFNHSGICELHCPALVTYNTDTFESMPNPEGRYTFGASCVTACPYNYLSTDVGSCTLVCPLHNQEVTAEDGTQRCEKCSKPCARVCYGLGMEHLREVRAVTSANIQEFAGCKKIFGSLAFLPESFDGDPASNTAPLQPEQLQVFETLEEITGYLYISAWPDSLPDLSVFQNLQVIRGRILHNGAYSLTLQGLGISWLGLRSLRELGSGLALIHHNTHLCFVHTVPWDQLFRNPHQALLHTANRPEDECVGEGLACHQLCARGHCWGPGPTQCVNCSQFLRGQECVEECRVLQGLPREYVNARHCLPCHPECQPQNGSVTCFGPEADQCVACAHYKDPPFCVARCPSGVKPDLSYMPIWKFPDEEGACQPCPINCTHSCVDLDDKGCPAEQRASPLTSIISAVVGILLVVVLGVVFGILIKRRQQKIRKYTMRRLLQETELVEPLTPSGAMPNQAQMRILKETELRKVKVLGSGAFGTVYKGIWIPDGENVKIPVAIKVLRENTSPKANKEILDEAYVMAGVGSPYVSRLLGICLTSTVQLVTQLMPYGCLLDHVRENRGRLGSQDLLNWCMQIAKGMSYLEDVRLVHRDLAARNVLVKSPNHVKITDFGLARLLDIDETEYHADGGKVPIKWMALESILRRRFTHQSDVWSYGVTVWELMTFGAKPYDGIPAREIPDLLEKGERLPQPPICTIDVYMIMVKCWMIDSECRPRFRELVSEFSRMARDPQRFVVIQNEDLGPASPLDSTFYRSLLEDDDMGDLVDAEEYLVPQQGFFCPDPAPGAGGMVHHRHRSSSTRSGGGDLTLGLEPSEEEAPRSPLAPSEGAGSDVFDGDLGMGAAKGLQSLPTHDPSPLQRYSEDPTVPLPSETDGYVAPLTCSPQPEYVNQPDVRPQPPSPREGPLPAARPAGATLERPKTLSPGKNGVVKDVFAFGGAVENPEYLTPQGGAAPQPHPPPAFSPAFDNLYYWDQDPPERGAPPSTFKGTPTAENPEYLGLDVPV
Procedure: as §3, §4, §5

Row | SMILES | IC50 [1] [µM] | inhibition at 100 µM [2] [%] | IC50 [3] [µM] | melting point [°C] | IC50 [4] [µM] | IC50 [5] [µM] | inhibition at 0.01 µM [6] [%] | IC50 [7] [µM] | inhibition at 0.01 µM [8] [%] | inhibition at 0.01 µM [9] [%] | inhibition at 0.01 µM [10] [%] | inhibition at 0.01 µM [11] [%] | IC50 ([12]; 48 h) [µM] | IC50 ([12]; Homo sapiens, HL-60, 48 h) [µM] | selectivity for the gene insulin receptor, in words [13] | inhibition at 0.01 µM [13] [%] | inhibition at 0.01 µM [14] [%] | inhibition at 0.01 µM [15] [%] | inhibitory activity in relation to HER-4, in words [8]
1 | Cc1cn(-c2cc(NCc3ccc(C(=O)Nc4cc(-n5cnc(C)c5)cc(C(F)(F)F)c4)cc3)cc(C(F)(F)F)c2)cn1 [Compound 8, N-(3-(4-methyl-1H-imidazol-1-yl)-5-(trifluoromethyl)phenyl)-4-(((3-(4-methyl-1H-imidazol-1-yl)-5-(trifluoromethyl)phenyl)amino)methyl)benzamide] | 9.5 | 19.3 | 85 | 200 to 202 | > 100 | 87 | – | – | – | – | – | – | – | – | – | – | – | – | –
2 | Cc1cn(-c2cc(NCc3ccc(C(=O)Nc4cc([N+](=O)[O-])ccc4C)cc3)cc(C(F)(F)F)c2)cn1 [Compound 15, 4-({[3-(4-Methyl-1H-imidazol-1-yl)-5-(trifluoromethyl)phenyl]amino}methyl)-N-{[(2-methyl-5-nitrophenyl) benzoate] | > 100 | 15.9 | 73 | 205 to 208 | > 100 | 78.5 | 0 | 31 | 0 | 0 | 0 | 0 | 5.8 | 5.6 | high selectivity | 43 | 0 | 0 | –
3 | Cc1cn(-c2cc(NC(=O)c3ccc(CNc4cccc(C(F)(F)F)c4)cc3)cc(C(F)(F)F)c2)cn1 [Compound 11, N-(3-(4-methyl-1H-imidazol-1-yl)-5-(trifluoromethyl)phenyl)-4-(((3-(trifluoromethyl)phenyl)amino)methyl)benzamide] | 57 | 15.5 | 61 | 83 to 85 | 54.3 | 54 | 55 | 53 | 49 | 91 | 0 | 0 | – | 51 | – | 0 | 16 | 0 | comparable to imatinib
4 | Cc1cn(-c2cc(NC(=O)c3ccc(CN4CCN(C(=O)c5cccnc5)CC4)cc3)cc(C(F)(F)F)c2)cn1 [Compound 28l] | 77 | – | > 100 | 96 to 100 | > 100 | > 100 | 0 | 4.5 | 51 | 0 | 0 | 7 | – | 53.5 | – | 0 | 17 | 0 | comparable to imatinib
5 | Cc1cn(-c2cc(NC(=O)c3ccc(CCl)cc3)cc(C(F)(F)F)c2)cn1 [Compound 5, 4-(Chloromethyl)-N-(3-(4-methyl-1H-imidazol-1-yl)-5-(trifluoromethyl)phenyl)benzamide] | 54 | < 0.1 | 53.5 | – | 70 | 51.8 | 0 | 69 | 0 | 0 | 0 | 0 | – | 45 | high selectivity | 57 | 0 | 0 | –
